According to patent US20110262383A1, “Naphthalimide Dosing by N-Acetyl Transferase Genotyping” (ChemGenex Pharmaceuticals, Inc., priority 2004, published 2011):
Counter-ions that a name gives are not always drawn.

Key:
[1] = test system: white blood cell count (WBC); settings: patients; cited from earlier work
[2] = Water solubility of amonafide salts; format: physicochemical; settings: as compared to a monohydrochloride salt
Neutrophils = test: Myelosuppression (reduction of neutrophils) by NAT-2 genotype in patients; format: in vivo, human
Protocol: Thirty-two (32) patients were treated amonafide dihydrochloride. Sixteen (16) were male and sixteen (16) were female. The mean age was 65 years. The dose schedule was days 1, 8, 15 and thereafter every 28 days. The dosages ranged from 300 to 500 mg/m^2 in a dose escalation studied to determine dose limiting toxicity (DLT).
Patients were genotyped to determine their NAT-2 (N-acetyl transferase) genotype. See D. W. Hein, et al., “Molecular Genetics and Epidemiology of the NAT1 and NAT2 Acetylation Polymorphisms,” Cancer Epidemiology, Biomarkers & Prevention Vol. 9, 29-42, January 2000.

Compound	effect on white blood cell count [1]	solubility in water [2]	Average % Reduction of Neutrophils (Neutrophils; I/R (Fast) genotype, 18 patients, dose 400 mg/m2) [%]	Average % Reduction of Neutrophils (Neutrophils; I/R (Fast) genotype, 18 patients, dose 400 mg/m2, listed as amonafide) [%]	Average % Reduction of Neutrophils (Neutrophils; S (Slow) genotype, 14 patients, dose 500 mg/m2) [%]
CC(=O)Nc1cc2c3c(cccc3c1)C(=O)N(CCN(C)C)C2=O [acetyl amonafide, N-acetyl amonafide]	induce leukocytopenia and, in particular, granulocytopenia	–	–	–	–
CN(C)CCN1C(=O)c2cccc3cc(N)cc(c23)C1=O [amonafide dihydrochloride, 5-amino-2-[(dimethylamine)ethyl]-1H-benz[de-]isoquinoline-1,3-(2H)-dione]	–	more soluble in water	78	~80	55
